Assays:
[1] = Inhibition of constitutively active VCAMss-Gluc secretion in human Flp-In-T-REx-293 cells at 2.5 uM measured by Gaussia luciferase reporter gene method relative to control; type: functional
[2] = Inhibition of TNF-alpha-FL-Gluc secretion in doxycyclin-induced human Flp-In-T-REx-293 cells at 2.5 uM measured by Gaussia luciferase reporter gene method relative to control; type: functional
[3] = Inhibition of constitutively active VCAMss-Gluc secretion in human Flp-In-T-REx-293 cells measured by Gaussia luciferase reporter gene method; type: functional, cell-based
[4] = Inhibition of VCAMss-Gluc secretion in doxycyclin-induced human Flp-In-T-REx-293 cells measured by Gaussia luciferase reporter gene method; type: functional, cell-based
[5] = Inhibition of TNF-alpha-FL-Gluc secretion in doxycyclin-induced human Flp-In-T-REx-293 cells measured by Gaussia luciferase reporter gene method; type: functional, cell-based
[6] = Inhibition of PD1ss-Gluc secretion in doxycyclin-induced human Flp-In-T-REx-293 cells measured by Gaussia luciferase reporter gene method; type: functional, cell-based
[7] = Inhibition of constitutively active PR1ss-Gluc secretion in human Flp-In-T-REx-293 cells measured by Gaussia luciferase reporter gene method; type: functional, cell-based
[8] = Inhibition of PR1ss-Gluc secretion in doxycyclin-induced human Flp-In-T-REx-293 cells measured by Gaussia luciferase reporter gene method; type: functional, cell-based
[9] = Inhibition of VCAMss-Gluc secretion in doxycyclin-induced human HEK293 cells measured by Gaussia luciferase reporter gene method; type: functional, cell-based
[10] = Inhibition of VCAM expression in human Flp-In-T-REx-293 cells measured by cellular VCAMss-Gluc assay; type: functional, cell-based
[11] = Inhibition of VCAM expression in doxycyclin-induced human HEK293-T-REx cells measured by Gaussia luciferase reporter gene method; type: functional, cell-based
[12] = Inhibition of HER3 expression in doxycyclin-induced human HEK293-T-REx cells measured by Gaussia luciferase reporter gene method; type: functional, cell-based
[13] = Inhibition of TLR9 expression in doxycyclin-induced human HEK293-T-REx cells measured by Gaussia luciferase reporter gene method; type: functional, cell-based
[14] = Inhibition of ROS1 expression in doxycyclin-induced human HEK293-T-REx cells measured by Gaussia luciferase reporter gene method; type: functional, cell-based
[15] = Inhibition of PD1 expression in doxycyclin-induced human HEK293-T-REx cells measured by Gaussia luciferase reporter gene method; type: functional, cell-based

Structure (SMILES)	inhibition at 2.5 µM [1] [%]	inhibition at 2.5 µM [2] [%]	IC50 [5] [µM]	IC50 [6] [µM]	IC50 [8] [µM]	other results
CC(C)(C)c1csc(NC(=O)c2cc3c(s2)CCN(Cc2ccccc2)C3)n1	33	22				
Cc1cc(C(=O)Nc2nc(C(C)(C)C)cs2)cs1			> 25	9.84	> 25	IC50 [3]: 12.5 µM; IC50 [4]: 19.1 µM; IC50 [7]: > 25 µM; IC50 [9]: 3.3 µM
COc1ccc2c(c1)cc(-c1ccc(C(=O)Nc3nc(C(C)(C)C)cs3)s1)n2C(=O)OC(C)(C)C	56	0				
CC(C)(C)c1csc(NC(=O)c2cccs2)n1	23	24				
O=C(NC1NC(c2ccccc2)=NS1)N1CCOc2ccc(Cl)cc2C1 (configuration not stated)						IC50 [9]: 22.1 µM
CC(C)(C)c1csc(NC(=O)C(Cc2ccccc2)c2cn(Cc3ccccc3)c3ccc(Cl)cc23)n1 (configuration not stated)			> 25	> 25	> 25	IC50 [10]: > 25 µM
CCOC(C)(C)c1csc(NC(=O)Cc2cn(Cc3ccccc3Cl)c3ccc(Cl)cc23)n1			24.4	0.968	> 25	IC50 [10]: 1 µM; IC50 [11]: < 5 µM; IC50 [12]: < 5 µM; IC50 [13]: < 5 µM; IC50 [14]: < 5 µM; IC50 [15]: < 5 µM
CC(C)(C)c1csc(NC(=O)c2ccc(Cl)cc2)n1	66	0				IC50 [7]: > 25 µM
CC(C)(C)c1csc(NC(=O)c2cc3c(s2)CCNC3)n1	0	0				

Source: ChEMBL document CHEMBL5050843, “Amide substituted thiazoles as protein secretion inhibitors” (2019)
